Data: ChEMBL document CHEMBL6182920, “The Discovery of C7-Substituted Norbornyl Bisamides as RXFP1 Small Molecule Agonists” (J Med Chem, 2025)
In brackets after ≈: the same amount, converted by molar mass.

Experiments:
Relaxin receptor 1 [1] = target: T1, Relaxin receptor 1 (Homo sapiens, UniProt Q9HBX9); experiment: Agonist activity at human RXFP1 stably expressed in HEK293 cells assessed as intracellular cAMP accumulation incubated for 30 mins by HTRF assay
T1 sequence (Q9HBX9 whole entry): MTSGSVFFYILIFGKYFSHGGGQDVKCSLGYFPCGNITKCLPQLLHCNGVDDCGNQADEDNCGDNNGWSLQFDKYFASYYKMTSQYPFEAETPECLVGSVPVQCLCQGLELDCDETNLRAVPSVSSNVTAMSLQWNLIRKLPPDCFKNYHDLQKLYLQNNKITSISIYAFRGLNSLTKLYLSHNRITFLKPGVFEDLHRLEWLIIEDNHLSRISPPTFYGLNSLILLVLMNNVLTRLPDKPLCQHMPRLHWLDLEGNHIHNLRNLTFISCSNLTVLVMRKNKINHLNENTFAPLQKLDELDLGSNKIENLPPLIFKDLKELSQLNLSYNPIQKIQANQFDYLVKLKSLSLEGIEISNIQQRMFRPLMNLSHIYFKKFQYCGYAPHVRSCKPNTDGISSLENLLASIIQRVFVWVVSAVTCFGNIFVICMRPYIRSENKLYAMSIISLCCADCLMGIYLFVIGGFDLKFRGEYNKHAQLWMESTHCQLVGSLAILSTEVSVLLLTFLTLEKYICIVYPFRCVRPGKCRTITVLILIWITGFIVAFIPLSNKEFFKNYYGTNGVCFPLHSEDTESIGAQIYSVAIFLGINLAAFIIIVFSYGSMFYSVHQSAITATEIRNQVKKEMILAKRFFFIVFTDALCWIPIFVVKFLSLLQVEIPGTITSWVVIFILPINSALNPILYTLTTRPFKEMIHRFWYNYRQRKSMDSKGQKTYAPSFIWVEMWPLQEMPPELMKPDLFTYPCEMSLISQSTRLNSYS

[2] = Microsomal stability in rat liver microsomes assessed as compound remaining measured after 30 mins; assay type: ADME, Microsome; settings: read-out: Stability
[3] = Thermodynamic aqueous solubility of compound in phosphate buffer at pH 7.4 by reversed-phase ultrahigh pressure liquid chromatography; assay type: physicochemical; settings: for solubility thermodynamic: phosphate buffer, read-out: Therm_solubility
[4] = Microsomal stability in mouse liver microsomes assessed as compound remaining measured after 30 mins; assay type: ADME, Microsome; settings: read-out: Stability
Relaxin receptor 1 [5] = target: T2, Relaxin receptor 1 (Mus musculus, UniProt Q6R6I7); experiment: Agonist activity at mouse RXFP1 stably expressed in HEK293 cells assessed as intracellular cAMP accumulation incubated for 30 mins by HTRF assay; assay type: functional, cell-based
T2 sequence (Q6R6I7 whole entry): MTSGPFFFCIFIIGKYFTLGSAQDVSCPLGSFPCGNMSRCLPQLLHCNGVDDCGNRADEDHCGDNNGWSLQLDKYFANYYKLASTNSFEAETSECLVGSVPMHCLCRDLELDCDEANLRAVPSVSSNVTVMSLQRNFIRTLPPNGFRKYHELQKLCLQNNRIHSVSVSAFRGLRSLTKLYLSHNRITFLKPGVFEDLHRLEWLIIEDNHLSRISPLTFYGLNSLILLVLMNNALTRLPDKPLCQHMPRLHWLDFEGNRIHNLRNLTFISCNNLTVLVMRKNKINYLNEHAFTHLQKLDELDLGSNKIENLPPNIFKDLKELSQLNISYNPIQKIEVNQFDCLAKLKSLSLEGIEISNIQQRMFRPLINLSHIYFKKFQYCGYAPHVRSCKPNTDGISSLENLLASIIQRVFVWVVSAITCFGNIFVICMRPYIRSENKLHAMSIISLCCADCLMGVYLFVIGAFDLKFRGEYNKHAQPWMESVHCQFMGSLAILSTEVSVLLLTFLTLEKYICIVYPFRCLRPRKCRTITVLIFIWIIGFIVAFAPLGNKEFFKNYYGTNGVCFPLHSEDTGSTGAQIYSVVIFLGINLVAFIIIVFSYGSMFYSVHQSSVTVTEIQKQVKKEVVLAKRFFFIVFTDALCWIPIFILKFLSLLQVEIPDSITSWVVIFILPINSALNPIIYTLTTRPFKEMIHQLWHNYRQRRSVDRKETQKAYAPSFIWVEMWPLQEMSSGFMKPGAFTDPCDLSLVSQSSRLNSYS

[6] = Microsomal stability in human liver microsomes assessed as compound remaining measured after 30 mins; assay type: ADME, Microsome; settings: read-out: Stability
Relaxin receptor 1 [7] = target: T3, Relaxin receptor 1 (Rattus norvegicus, UniProt Q6R6I6); experiment: Agonist activity at rat RXFP1 stably expressed in HEK293 cells assessed as intracellular cAMP accumulation incubated for 30 mins by HTRF assay; assay type: cell-based
T3 sequence (Q6R6I6 whole entry): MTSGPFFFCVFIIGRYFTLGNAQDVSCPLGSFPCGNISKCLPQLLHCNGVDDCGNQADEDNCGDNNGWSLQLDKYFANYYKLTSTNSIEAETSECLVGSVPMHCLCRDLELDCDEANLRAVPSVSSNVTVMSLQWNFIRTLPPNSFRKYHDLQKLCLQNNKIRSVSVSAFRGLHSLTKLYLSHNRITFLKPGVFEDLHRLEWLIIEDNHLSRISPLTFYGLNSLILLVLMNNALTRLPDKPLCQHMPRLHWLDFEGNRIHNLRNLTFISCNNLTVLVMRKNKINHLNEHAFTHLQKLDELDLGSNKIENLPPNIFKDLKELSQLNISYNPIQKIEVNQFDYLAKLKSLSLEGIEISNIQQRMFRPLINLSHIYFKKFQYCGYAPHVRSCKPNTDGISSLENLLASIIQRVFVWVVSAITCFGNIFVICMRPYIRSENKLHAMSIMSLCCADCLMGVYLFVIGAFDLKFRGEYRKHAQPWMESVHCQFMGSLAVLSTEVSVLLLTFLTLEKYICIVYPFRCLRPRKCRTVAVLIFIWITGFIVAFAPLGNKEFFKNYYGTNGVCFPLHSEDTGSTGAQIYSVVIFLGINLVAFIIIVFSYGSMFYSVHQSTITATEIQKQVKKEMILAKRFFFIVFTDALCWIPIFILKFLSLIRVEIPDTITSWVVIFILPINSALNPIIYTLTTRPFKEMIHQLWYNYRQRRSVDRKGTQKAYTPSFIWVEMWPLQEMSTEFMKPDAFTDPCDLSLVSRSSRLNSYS

Relaxin receptor 1 [8] = target: T2, Relaxin receptor 1; experiment: Partial agonist activity at mouse RXFP1 expressed in HEK293 cells assessed as intracellular cAMP accumulation incubated for 30 mins by HTRF assay; assay type: functional, cell-based

| Structure (SMILES) | EC50 (Relaxin receptor 1 [1]) [µM] | remaining at 0.5 h [2] [%] | remaining at 0.5 h [4] [%] | EC50 (Relaxin receptor 1 [5]) [µM] | remaining at 0.5 h [6] [%] | further results |
| --- | --- | --- | --- | --- | --- | --- |
| COc1ccc(-c2cccc(C(=O)O)c2)cc1C(=O)N[C@H]1[C@@H](C(=O)Nc2ccc(F)c(C(F)(F)F)c2)[C@H]2CC[C@@H]1C2=C(C)C | – | – | – | 6.3 | – | – |
| COc1ccc(-c2cc(C(=O)O)ccc2F)cc1C(=O)N[C@H]1[C@@H](C(=O)NC2CCCC2)[C@H]2CC[C@@H]1/C2=C\C1CC1 | – | – | – | 1.3 | – | – |
| COc1ccc(-c2cc(C(=O)O)ccc2F)cc1C(=O)N[C@H]1[C@@H](C(=O)Nc2ccc(F)c(C(F)(F)F)c2)[C@H]2CC[C@@H]1/C2=C\c1ccccc1 | 0.016 | > 90 | > 90 | 1.3 | > 90 | – |
| COc1ccc(-c2cc(C(=O)O)ccc2C)cc1C(=O)N[C@H]1[C@@H](C(=O)Nc2ccc(F)c(C(F)(F)F)c2)[C@H]2CC[C@@H]1C2=C(C)C | – | – | – | 1.7 | – | – |
| COc1ccc(-c2ccncc2)cc1C(=O)N[C@H]1[C@@H](C(=O)Nc2ccc(F)c(C(F)(F)F)c2)[C@H]2CC[C@@H]1C2=C(C)C | – | – | – | > 20 | – | – |
| COc1ccc(-c2ccc(C(=O)O)cc2)cc1C(=O)N[C@H]1[C@@H](C(=O)Nc2ccc(F)c(C(F)(F)F)c2)[C@H]2CC[C@@H]1C2=C(C)C | 0.38 | – | – | 2.3 | – | EC50 (Relaxin receptor 1 [8]): 2.3 µM |
| COc1cc(F)c(F)cc1C(=O)N[C@H]1[C@@H](C(=O)Nc2ccc(F)c(C(F)(F)F)c2)[C@H]2CC[C@@H]1/C2=C1/C=Cc2ccccc21 | 0.81 | – | – | – | – | – |
| COC(=O)c1ccc(F)c(-c2ccc(OC)c(C(=O)N[C@H]3[C@@H](C(=O)Nc4ccc(F)c(C(F)(F)F)c4)[C@H]4CC[C@@H]3C4=C(C)C)c2)c1 | – | – | – | > 10 | – | – |
| COc1ccc(-c2cc(O)ccc2F)cc1C(=O)N[C@H]1[C@@H](C(=O)Nc2ccc(F)c(C(F)(F)F)c2)[C@H]2CC[C@@H]1/C2=C\c1cnoc1 | – | > 90 | > 90 | 3 | > 90 | – |
| COc1ccc(-c2cc(C(=O)O)ccc2OC)cc1C(=O)N[C@H]1[C@@H](C(=O)Nc2ccc(F)c(C(F)(F)F)c2)[C@H]2CC[C@@H]1C2=C(C)C | – | – | – | 4.6 | – | – |
| COc1cc(F)c(F)cc1C(=O)N[C@H]1[C@@H](C(=O)Nc2ccc(F)c(C(F)(F)F)c2)[C@@H]2CC[C@@H]1C2C(C)C (single isomer, unassigned; isomer 2) | 14 | – | – | – | – | – |
| COc1cc(F)c(F)cc1C(=O)N[C@H]1[C@@H](C(=O)Nc2ccc(F)c(C(F)(F)F)c2)[C@H]2CC[C@@H]1/C2=C\c1c(Cl)cccc1Cl | 3.7 | – | – | – | – | – |
| COc1cc(F)c(F)cc1C(=O)N[C@H]1[C@@H](C(=O)Nc2ccc(F)c(C(F)(F)F)c2)[C@@H]2CC[C@@H]1C2C(C)C (stereo in doubt) | 3.5 | – | – | – | – | – |
| COc1ccc(-c2cncnc2)cc1C(=O)N[C@H]1[C@@H](C(=O)Nc2ccc(F)c(C(F)(F)F)c2)[C@H]2CC[C@@H]1C2=C(C)C | – | – | – | > 10 | – | – |
| COc1ccc(-c2ccccc2C(=O)O)cc1C(=O)N[C@H]1[C@@H](C(=O)Nc2ccc(F)c(C(F)(F)F)c2)[C@H]2CC[C@@H]1C2=C(C)C | – | – | – | > 20 | – | – |
| COc1ccc(-c2cc(C(=O)O)ccc2F)cc1C(=O)N[C@H]1[C@@H](C(=O)NCc2ccccc2C(F)(F)F)[C@H]2CC[C@@H]1/C2=C\C1CC1 | – | – | – | 2.2 | – | – |
| COc1ccc(-c2cccnc2)cc1C(=O)N[C@H]1[C@@H](C(=O)Nc2ccc(F)c(C(F)(F)F)c2)[C@H]2CC[C@@H]1C2=C(C)C | – | – | – | > 10 | – | – |

Second part, led by results:

| EC50 (Relaxin receptor 1 [1]) [µM] | remaining at 0.5 h [2] [%] | remaining at 0.5 h [4] [%] | EC50 (Relaxin receptor 1 [5]) [µM] | remaining at 0.5 h [6] [%] | Structure (SMILES) | further results |
| --- | --- | --- | --- | --- | --- | --- |
| 0.006 | > 90 | > 90 | 0.39 | > 90 | CNC(=O)OC(C(=O)O)c1ccc(F)c(-c2ccc(OC)c(C(=O)N[C@H]3[C@@H](C(=O)Nc4ccc(F)c(C(F)(F)F)c4)[C@H]4CC[C@@H]3/C4=C\C3CC3)c2)c1 (stereo in doubt; 40) | Therm_solubility ([3]; buffer): 250 µg/mL; EC50 (Relaxin receptor 1 [7]): 0.59 µM |
| – | > 90 | > 90 | 0.95 | > 90 | COc1ccc(-c2cc(C(N)=O)ccc2F)cc1C(=O)N[C@H]1[C@@H](C(=O)Nc2ccc(F)c(C(F)(F)F)c2)[C@H]2CC[C@@H]1/C2=C\c1cnoc1 | – |
| 0.022 | > 90 | > 90 | 0.56 | > 90 | COc1ccc(-c2cc(C(=O)NS(C)(=O)=O)ccc2F)cc1C(=O)N[C@H]1[C@@H](C(=O)Nc2ccc(F)c(C(F)(F)F)c2)[C@H]2CC[C@@H]1/C2=C\c1cnoc1 | solubility thermodynamic [3]: < 1 µg/mL; EC50 (Relaxin receptor 1 [7]): 0.89 µM |
| – | > 90 | > 90 | 0.14 | > 90 | COc1ccc(-c2cc(C(=O)O)ccc2F)cc1C(=O)N[C@H]1[C@@H](C(=O)Nc2ccc(F)c(C(F)(F)F)c2)[C@H]2CC[C@@H]1/C2=C\C1CC1 | – |
| 0.008 | > 90 | > 90 | 0.11 | > 90 | CNC(=O)OC(C(=O)O)c1ccc(F)c(-c2ccc(OC)c(C(=O)N[C@H]3[C@@H](C(=O)Nc4ccc(F)c(C(F)(F)F)c4)[C@H]4CC[C@@H]3/C4=C\c3cnoc3)c2)c1 (some centres undefined) | EC50 (Relaxin receptor 1 [7]): 0.14 µM |
| 0.013 | > 90 | > 90 | 1.1 | > 90 | COc1ccc(-c2cc(C(O)C(=O)O)ccc2F)cc1C(=O)N[C@H]1[C@@H](C(=O)Nc2ccc(F)c(C(F)(F)F)c2)[C@H]2CC[C@@H]1/C2=C\c1cnoc1 (some centres undefined) | solubility thermodynamic [3]: 60 µg/mL (≈ 86 µM); EC50 (Relaxin receptor 1 [7]): 1.1 µM |
| – | – | – | 0.94 | – | COc1ccc(-c2cc(C(=O)O)ccc2F)cc1C(=O)N[C@H]1[C@@H](C(=O)Nc2ccc(F)c(C(F)(F)F)c2)[C@H]2CC[C@@H]1C2=C(C)C | – |
| 0.011 | > 90 | > 90 | 0.74 | > 90 | COc1ccc(-c2cc(CC(=O)O)ccc2F)cc1C(=O)N[C@H]1[C@@H](C(=O)Nc2ccc(F)c(C(F)(F)F)c2)[C@H]2CC[C@@H]1/C2=C\c1cnoc1 | solubility thermodynamic [3]: 130 µg/mL (≈ 191 µM); EC50 (Relaxin receptor 1 [7]): 1.2 µM |
